Ten compounds from patent US7872014B2, “Anaplastic lymphoma kinase modulators and methods of use” (Exelixis, Inc., priority 2003, dated 2011) can be followed below.

Some results are limits rather than exact numbers.

In general, IC50 refers to the concentration that inhibits the measured activity by half. Low readings indicate greater potency in that assay, high ones weaker potency in that assay.

The target of the assay is T1, ALK (baculovirus expressed human ALK kinase domain F1098-K1410) (Homo sapiens, UniProt Q9UM73).
T1 construct: baculovirus expressed human ALK kinase domain F1098-K1410; made in house
T1 sequence (Q9UM73 1098-1410): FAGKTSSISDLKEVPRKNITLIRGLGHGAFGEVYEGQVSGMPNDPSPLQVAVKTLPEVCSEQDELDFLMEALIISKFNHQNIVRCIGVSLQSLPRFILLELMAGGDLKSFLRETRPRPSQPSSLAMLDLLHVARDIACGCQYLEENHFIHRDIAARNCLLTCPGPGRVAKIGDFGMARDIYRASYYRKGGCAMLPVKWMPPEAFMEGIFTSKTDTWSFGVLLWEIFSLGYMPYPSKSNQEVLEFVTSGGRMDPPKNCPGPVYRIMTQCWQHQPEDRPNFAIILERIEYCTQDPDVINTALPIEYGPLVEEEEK
The assay can be described thus: Luciferase-Coupled Chemiluminescent Kinase assay (LCCA), ALK biochemical activity. The settings on record: inhibition of ALK; mean values; 1 μM ATP, 4 μM poly-AEKY, 12 nM ALK, 2 hours ambient temperature. In short, it runs like this:
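Luciferase-coupled readout of ATP remaining after reaction of 12 nM ALK kinase domain with 1 μM ATP and 4 μM poly-AEKY, Tris-HCl pH 7.5 buffer with MgCl2 and MnCl2. Incubated 2 h at ambient temperature; inhibition derived from ATP consumption across serial compound dilutions.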
As for `COc1c(OCCN2CCC(N3CCCCC3)CC2)cc(F)c2c(-c3ccc(O)c(Cl)c3)nc3[nH]nc(C)c3c12` [Example 236, 4-[8-{[2-(1,4′-bipiperidin-1′-yl)ethyl]oxy}-6-fluoro-1-methyl-9-(methyloxy)-3H-pyrazolo[3,4-c]isoquinolin-5-yl]-2-chlorophenol], the IC50 was not above 0.099 µM.
To `COc1c(OCCN2CCCN(C)CC2)cc(F)c2c(-c3ccc(O)c(Cl)c3)nc3[nH]nc(C)c3c12` [Example 237, 2-chloro-4-[6-fluoro-1-methyl-8-{[2-(4-methyl-1,4-diazepan-1-yl)ethyl]oxy}-9-(methyloxy)-3H-pyrazolo[3,4-c]isoquinolin-5-yl]phenol] belongs not above 0.099 µM; to `COc1c(OCCN2CCN(c3ccccn3)CC2)cc(F)c2c(-c3ccc(O)c(Cl)c3)nc3[nH]nc(C)c3c12` [Example 238, 2-chloro-4-(6-fluoro-1-methyl-9-(methyloxy)-8-{[2-(4-pyridin-2-ylpiperazin-1-yl)ethyl]oxy}-3H-pyrazolo[3,4-c]isoquinolin-5-yl)phenol], not above 0.099 µM; to `COc1c(OCCN2CC(C)OC(C)C2)cc(F)c2c(-c3ccc(O)c(Cl)c3)nc3[nH]nc(C)c3c12` (stereo not shown) [Example 239, 2-chloro-4-[8-{[2-(2,6-dimethylmorpholin-4-yl)ethyl]oxy}-6-fluoro-1-methyl-9-(methyloxy)-3H-pyrazolo[3,4-c]isoquinolin-5-yl]phenol], not above 0.099 µM.
Turning to `COc1c(OCCN2CCSCC2)cc(F)c2c(-c3ccc(O)c(Cl)c3)nc3[nH]nc(C)c3c12` [Example 240, 2-chloro-4-{6-fluoro-1-methyl-9-(methyloxy)-8-[(2-thiomorpholin-4-ylethyl)oxy]-3H-pyrazolo[3,4-c]isoquinolin-5-yl}phenol], the IC50 is not above 0.099 µM.
`COc1c(OCCN2C(C)CCCC2C)cc(F)c2c(-c3ccc(O)c(Cl)c3)nc3[nH]nc(C)c3c12` (stereo not shown) [Example 241, 2-chloro-4-[8-{[2-(2,6-dimethylpiperidin-1-yl)ethyl]oxy}-6-fluoro-1-methyl-9-(methyloxy)-3H-pyrazolo[3,4-c]isoquinolin-5-yl]phenol] came in with an IC50 not above 0.099 µM.
To `COc1c(OCCN2CCCC3CCCCC32)cc(F)c2c(-c3ccc(O)c(Cl)c3)nc3[nH]nc(C)c3c12` (stereo not shown) [Example 242, 2-chloro-4-(6-fluoro-1-methyl-9-(methyloxy)-8-{[2-(octahydroquinolin-1(2H)-yl)ethyl]oxy}-3H-pyrazolo[3,4-c]isoquinolin-5-yl)phenol] belongs not above 0.099 µM; to `COc1c(OCCN(C(C)C)C(C)C)cc(F)c2c(-c3ccc(O)c(Cl)c3)nc3[nH]nc(C)c3c12` [Example 243, 4-[8-({2-[bis(1-methylethyl)amino]ethyl}oxy)-6-fluoro-1-methyl-9-(methyloxy)-3H-pyrazolo[3,4-c]isoquinolin-5-yl]-2-chlorophenol], not above 0.099 µM.
To `COCCN(CCOC)CCOc1cc(F)c2c(-c3ccc(O)c(Cl)c3)nc3[nH]nc(C)c3c2c1OC` [Example 244, 4-[8-[(2-{bis[2-(methyloxy)ethyl]amino}ethyl)oxy]-6-fluoro-1-methyl-9-(methyloxy)-3H-pyrazolo[3,4-c]isoquinolin-5-yl]-2-chlorophenol] belongs not above 0.099 µM; to `COc1c(OCCN2CCCCC2)cc(F)c2c(-c3ccc(O)c(Cl)c3)nc3[nH]nc(C)c3c12` [Example 245, 2-chloro-4-{6-fluoro-1-methyl-9-(methyloxy)-8-[(2-piperidin-1-ylethyl)oxy]-3H-pyrazolo[3,4-c]isoquinolin-5-yl}phenol], not above 0.099 µM.
